Laboratory results reported in US10934263B2, “Charged ion channel blockers and methods for use” (Nocion Therapeutics, Inc., priority 2019, dated 2021).

Columns and labels:
NaV1.7 [1] = target: T1, NaV1.7 (Homo sapiens, UniProt Q15858); experiment: Automated patch clamp (Qube 384), internal block of NaV1.7 in HEK293 cells; type: cell-based; details: compound in internal solution, read-out: Nav1.7 Intracellular Inhibition (IC50)
T1 construct: expressed in transfected cells; tetracycline-inducible, kept under hygromycin and blasticidin
T1 sequence (Q15858 whole entry): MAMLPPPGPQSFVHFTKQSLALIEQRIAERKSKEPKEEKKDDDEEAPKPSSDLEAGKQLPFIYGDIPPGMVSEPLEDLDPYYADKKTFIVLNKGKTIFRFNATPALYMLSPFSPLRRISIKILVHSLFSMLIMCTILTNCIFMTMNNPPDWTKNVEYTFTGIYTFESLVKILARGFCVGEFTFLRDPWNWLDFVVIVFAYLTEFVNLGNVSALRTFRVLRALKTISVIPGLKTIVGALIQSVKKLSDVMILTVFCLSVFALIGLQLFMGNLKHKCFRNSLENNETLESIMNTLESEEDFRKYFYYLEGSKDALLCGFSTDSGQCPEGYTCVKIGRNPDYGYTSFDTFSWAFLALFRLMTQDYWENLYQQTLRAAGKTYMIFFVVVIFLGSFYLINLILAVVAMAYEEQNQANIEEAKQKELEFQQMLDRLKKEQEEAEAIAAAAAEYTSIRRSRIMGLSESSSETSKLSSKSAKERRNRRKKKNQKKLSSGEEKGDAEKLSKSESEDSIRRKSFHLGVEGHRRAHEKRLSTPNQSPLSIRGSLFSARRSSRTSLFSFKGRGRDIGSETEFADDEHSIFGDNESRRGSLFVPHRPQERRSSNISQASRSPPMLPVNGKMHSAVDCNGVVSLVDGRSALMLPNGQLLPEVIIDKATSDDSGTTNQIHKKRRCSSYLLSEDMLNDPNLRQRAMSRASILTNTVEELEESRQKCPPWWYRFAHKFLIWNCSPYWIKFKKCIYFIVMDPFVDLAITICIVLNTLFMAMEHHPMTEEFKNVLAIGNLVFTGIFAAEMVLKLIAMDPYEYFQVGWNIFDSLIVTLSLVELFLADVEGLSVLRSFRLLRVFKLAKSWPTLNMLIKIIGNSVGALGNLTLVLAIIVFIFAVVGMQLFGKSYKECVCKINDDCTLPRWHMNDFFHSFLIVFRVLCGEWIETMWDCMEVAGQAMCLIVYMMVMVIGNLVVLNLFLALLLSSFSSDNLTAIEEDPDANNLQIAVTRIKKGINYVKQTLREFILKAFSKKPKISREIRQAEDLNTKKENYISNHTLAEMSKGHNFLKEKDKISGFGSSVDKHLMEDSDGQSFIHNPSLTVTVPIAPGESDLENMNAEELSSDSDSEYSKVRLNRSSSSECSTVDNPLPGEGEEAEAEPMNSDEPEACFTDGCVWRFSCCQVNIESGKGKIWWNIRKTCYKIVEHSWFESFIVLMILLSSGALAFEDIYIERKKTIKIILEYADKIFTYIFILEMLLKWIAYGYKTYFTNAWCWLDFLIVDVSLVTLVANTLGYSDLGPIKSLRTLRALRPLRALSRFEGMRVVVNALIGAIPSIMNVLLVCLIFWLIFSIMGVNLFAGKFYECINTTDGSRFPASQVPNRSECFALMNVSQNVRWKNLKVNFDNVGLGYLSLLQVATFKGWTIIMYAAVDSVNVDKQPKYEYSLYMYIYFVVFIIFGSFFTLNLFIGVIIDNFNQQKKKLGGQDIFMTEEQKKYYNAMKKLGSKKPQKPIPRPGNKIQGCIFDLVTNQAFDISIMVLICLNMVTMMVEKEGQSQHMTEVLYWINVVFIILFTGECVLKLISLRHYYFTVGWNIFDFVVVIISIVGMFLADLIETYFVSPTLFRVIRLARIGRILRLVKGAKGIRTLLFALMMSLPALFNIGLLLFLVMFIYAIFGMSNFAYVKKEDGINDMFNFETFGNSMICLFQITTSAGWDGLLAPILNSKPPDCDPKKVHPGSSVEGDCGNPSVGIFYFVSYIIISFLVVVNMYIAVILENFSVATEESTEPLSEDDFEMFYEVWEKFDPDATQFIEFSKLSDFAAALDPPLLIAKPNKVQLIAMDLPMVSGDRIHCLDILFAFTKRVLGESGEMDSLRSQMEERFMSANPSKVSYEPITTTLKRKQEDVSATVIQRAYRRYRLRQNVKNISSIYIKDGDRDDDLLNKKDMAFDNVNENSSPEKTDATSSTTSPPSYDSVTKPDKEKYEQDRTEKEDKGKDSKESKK
Method: (§1) NaV1.7 was expressed in HEK293 cells upon induction with tetracycline. Cells were cultured in DMEM containing 10% dialyzed Fetal Bovine Serum (VWR, Radnor, Pa.), 1% Glutamax (VWR, Radnor, Pa.), 1% Penicillin-Streptomycin (VWR, Radnor, Pa.), 100 mg/L Hygromycin (Thermo Fisher Scientific, Waltham, Mass. and 5 mg/L Blasticidin (Alfa Aesar, Haverhill, Mass.). Cells were grown and maintained at 37° C. in a humidified environment containing 10% CO2 in air. Cells were detached from the culture flask for passage and harvested using 0.05% Trypsin-EDTA (Thermo Fisher Scientific, Waltham, Mass.). To induce NaV1.7, cells were induced with tetracycline (0.1-1 μg/mL, IBI Scientific, Peosta, Iowa) the day before recording.
(§2) Before experiments, cells were washed with DPBS (VWR, Radnor, Pa.), digested with Detachin (VWR Radnor, Pa.) and then triturated 10 times in CHO Serum-Free Media (VWR Radnor, Pa.) to resuspend the cells and to break apart cell aggregates. Cells were counted and the final concentration was set at 2-5 million cells per mL.
(§3) The intracellular solution contained the following: 140 mM CsF, 1 mM/5 mM EGTA/CsOH, 10 mM HEPES, 10 mM NaCl, adjusted to pH 7.3 with CsOH, and osmolality to 320 with sucrose. The external solution contained the following: 145 mM NaCl, 4 mM KCl, 1 mM MgCl2, 2 mM CaCl2, 10 mM HEPES, 10 mM Glucose, adjusted to pH 7.4 with CsOH and osmolality to 305 with sucrose. All chemicals are from Sigma-Aldrich, St. Louis, Mo. In order to test the degree of internal block by test compounds, the compounds were dissolved in internal solution at the indicated test concentration. […] In order to test the degree of external block by test compounds the compounds were dissolved in external solution at the indicated test concentration.
(§4) Automated Patch Clamps were performed on Qube 384 (Sophion Bioscience, Woburn Mass.) with multihole Qchips at a temperature setting of 22 degrees. The whole cells configuration was formed with default Qube seal and break-in parameter. The membrane potential was held at −100 mV before the voltage protocol began. Two voltage protocols were followed.
(§5) Step 1: Cells were held at −100 mV with a depolarized pulse to −20 mV for 10 ms, the interval was set at 5 s. Currents were corrected by default leak subtraction from every pulse. The duration was set at 5 mins.
(§6) Step 2: Cells were held at −100 mV with a depolarized pulse to −20 mV for 10 ms. The frequency was 5 Hz. Currents were corrected by leak subtraction calculated before step 2. The duration was set at 4 mins.
After Step 2, the Qchip was removed from the recording chamber. The internal solution was changed with solutions containing test compounds. Qchips were held at −100 mV without pulsing after being replaced in the recording chamber. The total solution switching time was 8 minutes. After the internal solution exchange, Cells were recorded and step 2 for repeated for 10 minutes.
Data analysis was performed by Sophion Analyzer. Cells were filtered with minimum 50 MOhm seal resistance and minimum 5 nA starting current. The rundown of the currents was corrected with control cells (Non-Drug). The remaining was calculated by averaging last 3 points in the end of experiments. The base line was calculated as the average of last 3 points of Step 2. IC50 curves were plotted with DR-plots/Hill function (a dose-response plot with a Hill fit). Data analysis was performed by Sophion Analyzer.

NaV1.7 [2] = target: T1, NaV1.7; experiment: Automated patch clamp (Qube 384), external block of NaV1.7 in HEK293 cells; type: cell-based; details: compound in external solution, read-out: Nav1.7 Extracellular Inhibition (IC50)
Method: as §1, §2, §3, §4, §5, §6
After Step 2, the external solution was changed with solutions containing test compounds. Qchips were held at −100 mV without pulsing. The total solution switching time was 8 minutes. After the external solution exchange, cells were recorded using the same procedure as step 2 for 10 minutes.
Data analysis was performed by Sophion Analyzer. Data were corrected with control cells (Non-Drug). The IC50 data were plotted with DR-plots/Hill function (a dose-response plot with a Hill fit).

NaV1.7 [3] = target: T1, NaV1.7; experiment: Whole cell patch clamp, internal block of NaV1.7 current (compound in internal solution); type: cell-based; details: compound applied internally, manual patch clamp, read-out: Nav1.7 Intracellular Inhibition
Method: Representative compounds of the invention were synthesized according to the described methods and tested for the ability to inhibit voltage-gated sodium channels.
as §1, with “expressed” for “expressed in HEK293 cells”, “recording and plated onto 24-well plates. Cells were washed with DPBS (VWR, Radnor, Pa.), trypsinized and then triturated five times in 10 mL of growth media to break apart cell aggregates. For one 24-well plate, 2 mL of cell suspension was mixed with 23 mL of fresh growth media and 0.1-1 μg/mL tetracycline added. 1 ml of mixed media with cells was then added to each well of a 24-well plate, with a 12 mm coverslip already placed in the bottom of the well. Cells were then incubated in 37° C. and 10% CO2 overnight.” for “recording.”
The intracellular solution contained the following (in mM) CsCl 135, NaCl 10, EGTA 10, HEPES 10, MgCl2 2, adjusted to pH 7.2 with CsOH. The external solution was a normal Ringer solution containing (in mM) NaCl 155, HEPES 10, glucose 10, KCl 3.5, CaCl2 1.5, MgCl2 1 adjusted to pH 7.4 with NaOH. CsCl is from Alfa Aesar, Haverhill, Mass. All other chemicals are from Sigma-Aldrich, St. Louis, Mo. In order to test the degree of internal block by test compounds the compounds were dissolved in internal solution at the indicated test concentration. […] In order to test the degree of external block by test compounds the compounds were dissolved in external solution at the indicated test concentration.
18-24 hours after cells were induced with tetracycline, coverslips were placed into a chamber filled with Normal Ringer solution at room temperature and the chamber placed on a microscope. Pipettes were pulled from borosilicate glass on a P97 puller (Sutter Instrument, Novato, Calif.) and polished with a MF-830 Microforge (Narishige International USA, Inc, Amityville, N.Y.) to have a resistance of 1.5-2.5 MΩ when filled with CsCl internal solution at room temperature. Healthy cells (those that are round and translucent with no visible blemishes) were chosen for seal formation. A seal was formed between the pipette and the cell, and a brief pulse of suction was used to “break in” and establish the whole-cell configuration. The membrane potential was held at −100 mV before the voltage protocol began. Only cells with series resistance between 1.5-5 MΩ were retained for analysis. The voltage protocol was as follows: Cells were held at −100 mV for 12 ms followed by a hyperpolarizing step to −105 mV for 12 ms to monitor the leak. Cells were then stepped back to −100 mV for 40 ms. Cells were then depolarized to −20 mV for 10 ms and then returned to −100 mV for 26 ms.
Once the recording was started, the voltage protocol was run at 30 second intervals for 5 minutes to get a stable baseline. This was followed by four 30-second periods of 5 Hz stimulation of the same voltage protocol separated by 1 minute of rest which was then followed by 0.33 Hz stimulation after the last train. Currents were recorded using PatchMaster software with Heka EPC10 (HEKA Electronics, Lambrecht, Germany). Only cells with inward current amplitudes at −20 mV between 400 pA and 4 nA were accepted. In addition, cells having leak currents greater than 10% of their current amplitudes were discarded. […]

[4] = PAMPA membrane permeability assay; type: in vitro ADME; details: PAMPA permeability coefficient, GIT lipid, buffer pH 7.4, 4 hours incubation
Method: The PAMPA assay (pION, Inc., Woburn Mass.) was used to determine the ability of compounds of the invention to cross an artificial lipid membrane by passive diffusion. Test compounds were dissolved in DMSO (10 mM) and diluted 200-fold in buffer (pION Inc., pH 7.4) to provide 50 uM stock solutions. Buffer (150 μL) was added to a UV blank plate and stock solutions (150 μL) were transferred to a UV reference plate. The blank and reference spectrum were read using a spectrophotometer. Stock solutions (200 μL) were added to the donor plate of the PAMPA sandwich plate and an accept plate painted with GIT lipid (pION Inc, 5 μL) was placed on top. Buffer (200 μL) was added to the acceptor plate and the PAMPA sandwich plate was incubated for 4 hours. Aliquots (150 μL) from the acceptor plate were added to a UV plate and read as acceptor spectrum. Aliquots (150 μL) of the donor solutions were added to a UV analysis plate and read as donor spectrum. The permeability coefficient of test compounds was calculated using PAMPA Explorer™ software (version 3.5.0.4) based on the AUC of the reference plate, the donor plate, and the acceptor plate.

Row | SMILES | IC50 (NaV1.7 [1]) [µM] | IC50 (NaV1.7 [2]) [µM] | inhibition at 10 µM (NaV1.7 [3]) [%] | PAMPA (10^−6 cm/s) [4] | inhibition at 32 µM (NaV1.7 [3]) [%]
1 | Cc1cccc(C)c1NC(=O)C[n+]1cc(-c2ccccc2)n(C)c1 [Compound 24] | 3 to 10 | > 100 | – | – | –
2 | Cc1cccc(C)c1NC(=O)C[n+]1cccc(C2CC2)c1 [Compound 22] | 3 to 10 | 30 to 100 | – | – | –
3 | Cc1cccc(C)c1NC(=O)C[n+]1cccn1-c1ccccc1 [Compound 29] | 3 to 10 | > 100 | – | – | –
4 | Cc1cccc(C)c1NC(=O)C[n+]1cccc(-c2nn[nH]n2)c1 [Compound 53] | 10 to 30 | – | < 40 | + (<0.1 10^−6 cm/s) | –
5 | Cc1cccc(C)c1NC(=O)C[n+]1cc(CO)n(C(C)C)c1 [Compound 59] | 10 to 30 | – | 70 to 95 | ++ (0.1-2.0 10^−6 cm/s) | –
6 | Cc1cccc(C)c1NC(=O)C[n+]1cccc(N)c1 [Compound 49] | 3 to 10 | > 100 | 70 to 95 | – | –
7 | COc1cc(C#N)c[n+](CC(=O)Nc2c(C)cccc2C)c1 [Compound 97] | 10 to 30 | < 10 | 70 to 95 | – | –
8 | Cc1cccc(C)c1NC(=O)C[n+]1cc(F)c2ccccc2c1 [Compound 67] | 3 to 10 | < 10 | 40 to 70 | – | –
9 | Cc1cccc(C)c1NC(=O)C[n+]1c2ccc(Cl)cc2cn1C [Compound 96] | 3 to 10 | 30 to 100 | 70 to 95 | – | –
10 | Cc1cccc(C)c1NC(=O)Cn1cc[n+](CC(=O)Nc2c(C)cccc2C)c1 [Compound 110] | 10 to 30 | – | 70 to 95 | ++ (0.1-2.0 10^−6 cm/s) | –
11 | Cc1cccc(C)c1NC(=O)C[n+]1c(C)cccc1C [Compound 6] | 1 to 3 | > 100 | – | – | –
12 | CCC(C(=O)Nc1c(C)cccc1C)[n+]1ccn(C)c1.[Br-] (stereo not shown) [Compound 4A, 3-(1-((2,6-dimethylphenyl)amino)-1-oxobutan-2-yl)-1-methyl-1H-imidazol-3-ium bromide] | – | – | – | + (<0.1 10^−6 cm/s) | 40 to 70
13 | Cc1cccc(C)c1NC(=O)C[n+]1ccc2ccccc2c1.[Br-] [Compound 15A] | – | – | – | ++ (0.1-2.0 10^−6 cm/s) | > 95
14 | Cc1cccc(C)c1NC(=O)C[n+]1c(C)ccc(-c2ccccc2)c1C.[Br-] [Compound 23A] | – | – | – | + (<0.1 10^−6 cm/s) | > 95

More lines, now with the values ahead:

Row | IC50 (NaV1.7 [1]) [µM] | IC50 (NaV1.7 [2]) [µM] | inhibition at 10 µM (NaV1.7 [3]) [%] | PAMPA (10^−6 cm/s) [4] | inhibition at 32 µM (NaV1.7 [3]) [%] | SMILES
15 | 1 to 3 | > 100 | – | – | – | CCNC(=O)Cn1ccc[n+]1CC(=O)Nc1c(C)cccc1C [Compound 30]
16 | 1 to 3 | > 100 | 70 to 95 | – | – | CNC(=O)c1ccc[n+](CC(=O)Nc2c(C)cccc2C)c1 [Compound 40]
17 | < 1 | 30 to 100 | – | – | – | Cc1cccc(C)c1NC(=O)C[n+]1cccn1C1CCCCC1 [Compound 28]
18 | 1 to 3 | > 100 | – | – | – | Cc1cccc(C)c1NC(=O)C[n+]1ccccc1-c1ccccc1 [Compound 16]
19 | 1 to 3 | > 100 | 70 to 95 | – | – | Cc1cccc(C)c1NC(=O)C[n+]1cccc(C(C)(C)C)c1 [Compound 32]
20 | 1 to 3 | – | – | – | – | Cc1cccc(C)c1NC(=O)C[n+]1cccc(C(=O)OC2CCCC2)c1 [Compound 105]
21 | 1 to 3 | 10 to 30 | – | – | – | Cc1cccc(C)c1NC(=O)C[n+]1cccc(-c2ccccc2)c1 [Compound 12]
22 | 1 to 3 | < 10 | – | – | – | Cc1cccc(C)c1NC(=O)C[n+]1cc(-c2ccccc2)c2ccccc2c1 [Compound 100]
23 | < 1 | < 10 | – | – | – | Cc1cccc(C)c1NC(=O)C[n+]1c(C)ccc(-c2ccccc2)c1C [Compound 23]
24 | 1 to 3 | > 100 | – | – | – | Cc1cccc(C)c1NC(=O)C[n+]1cccn1CC(C)C [Compound 27]
25 | < 1 | < 10 | – | – | – | Cc1cccc(C)c1NC(=O)C[n+]1cccc(C2CCCC2)c1 [Compound 21]
